Columns and labels:
D2 receptor = D2 receptor (Homo sapiens, UniProt P14416); details: Merck Manual 17th Edition; cited from earlier work
[1] = idazoxan 120 mg/day added to 1000 mg chlorpromazine equivalents of fluphenazine; Litman et al. 1996; cited from earlier work
Wistar rats = test: Conditioned avoidance response (CAR) behavior in rats; assay type: in vivo; details: rat CAR; adjunct treatment with idazoxan
Excerpt: Food and water were available ad libitum.
Rats were trained and tested in a conventional, manually operated two-way active avoidance (shuttlebox) apparatus connected to a high resistance power supply. The box was divided into two compartments of equal size by a partition with one opening. Upon presentation of the 80 dB white noise conditioned stimulus (CS), the animals had 10 seconds to move from one compartment of the shuttlebox into the other. If the rat remained in the same compartment for more than 10 seconds, an intermittent electric shock (approx. 0.2 mA of 0.5-sec duration; intershock interval 2.5 sec), the unconditioned stimulus (UCS), was presented in the grid floor until an escape was performed. […] Intertrial intervals varied at random between 20 and 40 seconds. The following variables were recorded: avoidance (response to CS within 10 sec); escape (response to CS+UCS); escape failures (failure to respond); and intertrial crosses. The animals were trained for 3 consecutive days. Training sessions were run over 15 minutes. A final test session (7.5 minutes) was performed on the day immediately prior to the first experimental day, and only animals performing at the 100% correct level were assigned to the experiment. Experimental manipulations were always preceded by a pretest. […]

α2 adrenoreceptors = details: Martire et al. 1988; cited from earlier work
α2 autoreceptors = details: presynaptic; Martire et al. 1988; cited from earlier work
[2] = system: α2 adrenergic receptor versus dopamine D2 receptor; details: literature; cited from earlier work

Chain of D2 receptor (P14416 whole entry): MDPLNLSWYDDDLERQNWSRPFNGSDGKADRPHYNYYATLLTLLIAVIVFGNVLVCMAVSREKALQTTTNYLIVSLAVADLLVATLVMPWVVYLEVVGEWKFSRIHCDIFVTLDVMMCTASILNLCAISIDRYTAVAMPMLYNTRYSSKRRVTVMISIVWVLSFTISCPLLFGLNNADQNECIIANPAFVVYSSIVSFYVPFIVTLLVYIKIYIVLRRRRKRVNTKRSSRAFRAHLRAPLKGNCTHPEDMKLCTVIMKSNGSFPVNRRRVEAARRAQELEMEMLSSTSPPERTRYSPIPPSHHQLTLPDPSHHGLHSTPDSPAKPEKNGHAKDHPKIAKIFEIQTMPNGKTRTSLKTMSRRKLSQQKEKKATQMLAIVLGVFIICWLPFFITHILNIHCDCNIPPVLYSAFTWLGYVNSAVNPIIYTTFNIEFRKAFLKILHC

OCCN1CCN(CCCN2c3ccccc3Sc3ccc(C(F)(F)F)cc32)CC1 [fluophenazine, fluphenazine]
dose corresponding to 1000 mg chlorpromazine equivalents (D2 receptor): 20 mg

c1ccc2c(c1)OCC(C1=NCCN1)O2 (racemic) [idazoxan, ±-2-(1,4-benzodioxan-2-yl)-d-imidazoline]
clinical response [1]: adequate clinical responses

O=C1NCCN1CCN1CCC(c2cn(-c3ccc(F)cc3)c3ccc(Cl)cc23)CC1 [sertindole]
dose corresponding to 1000 mg chlorpromazine equivalents (D2 receptor): 24 mg

Cc1cc2c(s1)Nc1ccccc1N=C2N1CCN(C)CC1 [olanzapine]
reduction of the olanzapine dose required for an effective antipsychotic effect through adjunct idazoxan (Wistar rats): ~50%

c1ccc2c(c1)OCC(C1=NCCN1)O2 (single isomer, unassigned; (+)) [(+)-idazoxan]
potency in inhibiting p-[3H]aminoclonidine binding relative to (−) idazoxan (α2 adrenoreceptors): 7-8 times | affinity towards the α2 autoreceptors relative to (−) idazoxan (α2 autoreceptors): 40 times

OCCOCCN1CCN(C2=Nc3ccccc3Sc3ccccc32)CC1 [quetiapine]
dose corresponding to 1000 mg chlorpromazine equivalents (D2 receptor): 900 mg

O=C1Cc2cc(CCN3CCN(c4nsc5ccccc45)CC3)c(Cl)cc2N1 [ziprasidone]
fold less affinity for the α2 adrenergic receptor than for the dopamine D2 receptor [2]: 100 fold
